Reference: US20240368173A1, “TRICYCLIC GPR65 MODULATORS” (PATHIOS THERAPEUTICS LIMITED, priority 2021, published 2024)
pIC50: −log10 of the molar value. Read-outs that look alike come from different tables or passages of the source.

Target: human recombinant GPR65 (Homo sapiens, UniProt Q8IYL9)
Experiment: Human GPR65 cAMP HTRF antagonist assay
Format: cell-based
Procedure, shortened: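 Antagonism measured as suppression of the cAMP rise when pH is dropped to 7.2 (control wells pH 7.9) in 1321N1 cells stably carrying human GPR65. Cells in KRH with 1 mM IBMX and 200 μM EDTA saw compound 30 min, then acid stimulation 30 min; HTRF cAMP detection, normalised, 4-parameter logistic IC50.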

[1] = 1321N1-hrGPR65 cells, cAMP HTRF, assay pH 7.2, read-out: hGPR65 IC50 (Activity of selected compounds according to the invention)

Chain of human recombinant GPR65 (Q8IYL9 whole entry): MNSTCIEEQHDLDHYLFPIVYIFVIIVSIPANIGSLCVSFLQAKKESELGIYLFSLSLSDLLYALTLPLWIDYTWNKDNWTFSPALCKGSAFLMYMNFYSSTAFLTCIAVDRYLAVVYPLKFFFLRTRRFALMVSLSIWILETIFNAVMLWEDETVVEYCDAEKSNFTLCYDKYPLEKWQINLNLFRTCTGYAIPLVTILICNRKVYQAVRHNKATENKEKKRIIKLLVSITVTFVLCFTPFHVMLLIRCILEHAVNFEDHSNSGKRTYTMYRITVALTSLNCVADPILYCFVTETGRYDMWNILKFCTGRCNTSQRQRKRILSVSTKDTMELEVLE

| SMILES | pIC50 | pIC50 [1] |
| --- | --- | --- |
| O=C(Nc1cc(Cl)c(-c2cc3nonc3cc2F)cc1F)N1[C@H]2CC[C@@H]1c1n[nH]c(=O)cc1C2 [Compound 326, (6S,9R)-N-(5-Chloro-2-fluoro-4-(6-fluorobenzo[c][1,2,5]oxadiazol-5-yl)phenyl)-3-oxo-3,5,6,7,8,9-hexahydro-2H-6,9-epiminocyclohepta[c]pyridazine-10-carboxamide] | > 6.30 | – |
| O=C(Nc1cc(Cl)c(C(F)(F)F)cc1F)N1C2CCC1C(F)(F)c1c2ccnc1F (racemic) [Compound 183, (±)—N-(5-Chloro-2-fluoro-4-(trifluoromethyl)phenyl)-1,9,9-trifluoro-6,7,8,9-tetrahydro-5H-5,8-epiminocyclohepta[c]pyridine-10-carboxamide] | > 6.30 | – |
| O=C(Nc1cc(Cl)c(-c2cnc3nsnc3c2)cc1F)N1[C@H]2CC[C@@H]1c1n[nH]c(=O)cc1C2 [Compound 277, (6S,9R)-N-(4-([1,2,5]Thiadiazolo[3,4-b]pyridin-6-yl)-5-chloro-2-fluorophenyl)-3-oxo-3,5,6,7,8,9-hexahydro-2H-6,9-epiminocyclohepta[c]pyridazine-10-carboxamide] | > 6.30 | – |
| O=C1c2c(ccnc2F)C2CCC1N2C(=O)Nc1cc(Cl)c(Cl)cc1F (racemic) [Compound 155, (±)—N-(4,5-Dichloro-2-fluorophenyl)-1-fluoro-9-oxo-6,7,8,9-tetrahydro-5H-5,8-epiminocyclohepta[c]pyridine-10-carboxamide] | > 6.30 | – |
| O=C(Nc1cc(C(F)(F)F)c(-c2ccc(F)nc2)cc1F)N1[C@H]2CC[C@@H]1c1n[nH]c(=O)cc1C2 [Compound 212, (6S,9R)-N-(2-Fluoro-4-(6-fluoropyridin-3-yl)-5-(trifluoromethyl)phenyl)-3-oxo-3,5,6,7,8,9-hexahydro-2H-6,9-epiminocyclohepta[c]pyridazine-10-carboxamide] | > 6.30 | – |
| O=C(Nc1cc(Cl)c(-c2cncn2C2CCCCO2)cc1F)N1[C@H]2CC[C@@H]1c1n[nH]c(=O)cc1C2 (stereo partly drawn) [Compound 143, (6S,9R)-N-(5-Chloro-2-fluoro-4-(1-(tetrahydro-2H-pyran-2-yl)-1H-imidazol-5-yl)phenyl)-3-oxo-3,5,6,7,8,9-hexahydro-2H-6,9-epiminocyclohepta[c]pyridazine-10-carboxamide] | – | 5.30 to 6.30 |
| N#Cc1cc(NC(=O)N2[C@H]3CC[C@@H]2c2n[nH]c(=O)cc2C3)ccc1C(F)(F)F [Compound 41, (6S,9R)-N-(3-Cyano-4-(trifluoromethyl)phenyl)-3-oxo-3,5,6,7,8,9-hexahydro-2H-6,9-epiminocyclohepta[c]pyridazine-10-carboxamide] | > 6.30 | – |
| O=C(Nc1cc(Cl)c(-c2ccc(OC(C(F)F)C(F)F)nc2)cc1F)N1[C@H]2CC[C@@H]1c1n[nH]c(=O)cc1C2 [Compound 331, (6S,9R)-N-(5-Chloro-2-fluoro-4-(6-((1,1,3,3-tetrafluoropropan-2-yl)oxy)pyridin-3-yl)phenyl)-3-oxo-3,5,6,7,8,9-hexahydro-2H-6,9-epiminocyclohepta[c]pyridazine-10-carboxamide] | > 6.30 | – |
| O=C(Nc1cc(Cl)c(-c2ccc(OCC(F)(F)F)nc2)cc1F)N1[C@H]2CC[C@@H]1c1c[nH]c(=O)cc1C2 [Compound 241, (6S,9R)-N-(5-Chloro-2-fluoro-4-(6-(2,2,2-trifluoroethoxy)pyridin-3-yl)phenyl)-3-oxo-3,5,6,7,8,9-hexahydro-2H-6,9-epiminocyclohepta[c]pyridine-10-carboxamide] | > 6.30 | – |
| O=C(Nc1cc(Cl)c(COc2ccc3nonc3c2)cc1F)N1[C@H]2CC[C@@H]1c1n[nH]c(=O)cc1C2 [Compound 302, (6S,9R)-N-(4-((Benzo[c][1,2,5]oxadiazol-5-yloxy)methyl)-5-chloro-2-fluorophenyl)-3-oxo-3,5,6,7,8,9-hexahydro-2H-6,9-epiminocyclohepta[c]pyridazine-10-carboxamide] | > 6.30 | – |
| O=C(Nc1cc(F)c(-c2ccc(F)nc2)cc1F)N1[C@H]2CC[C@@H]1c1c[nH]c(=O)cc1C2 [Compound 243, (6S,9R)-N-(2,5-Difluoro-4-(6-fluoropyridin-3-yl)phenyl)-3-oxo-3,5,6,7,8,9-hexahydro-2H-6,9-epiminocyclohepta[c]pyridine-10-carboxamide] | > 6.30 | – |
| O=C(Nc1cc(Cl)c(COc2cncc(F)c2)cc1F)N1[C@H]2CC[C@@H]1c1n[nH]c(=O)cc1C2 [Compound 316, (6S,9R)-N-(5-Chloro-2-fluoro-4-(((5-fluoropyridin-3-yl)oxy)methyl)phenyl)-3-oxo-3,5,6,7,8,9-hexahydro-2H-6,9-epiminocyclohepta[c]pyridazine-10-carboxamide] | > 6.30 | – |
| O=C(Nc1cc(Cl)c(C(F)(F)F)cc1F)N1[C@@H]2CC[C@H]1c1n[nH]c(=O)cc1C2 [Compound 19, (6R,9S)-N-(5-Chloro-2-fluoro-4-(trifluoromethyl)phenyl)-3-oxo-3,5,6,7,8,9-hexahydro-2H-6,9-epiminocyclohepta[c]pyridazine-10-carboxamide] | > 6.30 | – |
| O=C(Nc1ccc(Br)c(C(F)(F)F)c1)N1[C@@H]2CC[C@H]1c1n[nH]c(=O)cc1C2 [Compound 48, (6R,9S)-N-(4-Bromo-3-(trifluoromethyl)phenyl)-3-oxo-3,5,6,7,8,9-hexahydro-2H-6,9-epiminocyclohepta[c]pyridazine-10-carboxamide] | 5.30 to 6.30 | – |
| CO[C@H]1C[C@H](Oc2ccc(NC(=O)N3[C@H]4CC[C@@H]3c3ccnc(F)c3C4)cc2Cl)C1 [Compound 73, (5R,8S)-N-(3-Chloro-4-((1r,3R)-3-methoxycyclobutoxy)phenyl)-1-fluoro-6,7,8,9-tetrahydro-5H-5,8-epiminocyclohepta[c]pyridine-10-carboxamide] | 5.30 to 6.30 | – |
| O=C(Nc1ccc(C(F)(F)F)c(Br)c1)N1C2CCC1c1n[nH]c(=O)cc1C2 (racemic) [Compound 3, (±)-N-(3-Bromo-4-(trifluoromethyl)phenyl)-3-oxo-3,5,6,7,8,9-hexahydro-2H-6,9-epiminocyclohepta[c]pyridazine-10-carboxamide] | > 6.30 | – |
| O=C1NCCc2cc(-c3cc(F)c(NC(=O)N4[C@H]5CC[C@@H]4c4n[nH]c(=O)cc4C5)cc3Cl)ccc21 [Compound 151, (6S,9R)-N-(5-Chloro-2-fluoro-4-(1-oxo-1,2,3,4-tetrahydroisoquinolin-6-yl)phenyl)-3-oxo-3,5,6,7,8,9-hexahydro-2H-6,9-epiminocyclohepta[c]pyridazine-10-carboxamide] | – | < 5.30 |
| O=C(Nc1cc(F)c(-c2ccc(C(F)(F)F)nc2)cc1F)N1[C@H]2CC[C@@H]1c1ccnc(F)c1C2 [Compound 223, (5R,8S)-N-(2,5-Difluoro-4-(6-(trifluoromethyl)pyridin-3-yl)phenyl)-1-fluoro-6,7,8,9-tetrahydro-5H-5,8-epiminocyclohepta[c]pyridine-10-carboxamide] | > 6.30 | – |
| NC(=O)c1ccc(-c2cc(F)c(NC(=O)N3[C@H]4CC[C@@H]3c3n[nH]c(=O)cc3C4)cc2Cl)cc1 [Compound 129, (6S,9R)-N-(4′-Carbamoyl-2-chloro-5-fluoro-[1,1′-biphenyl]-4-yl)-3-oxo-3,5,6,7,8,9-hexahydro-2H-6,9-epiminocyclohepta[c]pyridazine-10-carboxamide] | – | 5.30 to 6.30 |
| O=C(Nc1ccc(Br)c(Cl)c1)N1C2CCC1c1n[nH]c(=O)cc1C2 (racemic) [Compound 4, (±)-N-(4-Bromo-3-chlorophenyl)-3-oxo-3,5,6,7,8,9-hexahydro-2H-6,9-epiminocyclohepta[c]pyridazine-10-carboxamide] | > 6.30 | – |
| O=C(Nc1cc(Cl)c(Cl)cc1F)N1[C@H]2CC[C@@H]1c1ncccc1C2 [Compound 90, (6S,9R)-N-(4,5-Dichloro-2-fluorophenyl)-6,7,8,9-tetrahydro-5H-6,9-epiminocyclohepta[b]pyridine-10-carboxamide] | – | < 5.30 |
| O=C(Nc1cc(Cl)c(-c2ccc3nonc3c2)cn1)N1[C@H]2CC[C@@H]1c1ccnc(F)c1C2 [Compound 339, (5R,8S)-N-(5-(Benzo[c][1,2,5]oxadiazol-5-yl)-4-chloropyridin-2-yl)-1-fluoro-6,7,8,9-tetrahydro-5H-5,8-epiminocyclohepta[c]pyridine-10-carboxamide] | > 6.30 | – |
| O=C(Nc1cc(Cl)c(-c2cnn(-c3ccncc3)c2)cc1F)N1[C@H]2CC[C@@H]1c1n[nH]c(=O)cc1C2 [Compound 145, (6S,9R)-N-(5-Chloro-2-fluoro-4-(1-(pyridin-4-yl)-1H-pyrazol-4-yl)phenyl)-3-oxo-3,5,6,7,8,9-hexahydro-2H-6,9-epiminocyclohepta[c]pyridazine-10-carboxamide] | > 6.30 | – |
| CNCCOc1ccc(-c2cc(F)c(NC(=O)N3[C@H]4CC[C@@H]3c3ccnc(F)c3C4)cc2Cl)cn1 [Compound 300, (5R,8S)—N-(5-Chloro-2-fluoro-4-(6-(2-(methylamino)ethoxy)pyridin-3-yl)phenyl)-1-fluoro-6,7,8,9-tetrahydro-5H-5,8-epiminocyclohepta[c]pyridine-10-carboxamide] | – | 5.30 to 6.30 |
| O=C(Nc1cc(Br)c(C(F)(F)F)cc1F)N1[C@H]2CC[C@@H]1c1c[nH]c(=O)nc1C2 [Compound 28, (5R,8S)-N-(5-Bromo-2-fluoro-4-(trifluoromethyl)phenyl)-2-oxo-3,5,6,7,8,9-hexahydro-2H-5,8-epiminocyclohepta[d]pyrimidine-10-carboxamide] | > 6.30 | – |
| O=C(Nc1cc(-c2ccc3nonc3c2)c(C(F)(F)F)cc1F)N1[C@H]2CC[C@@H]1c1n[nH]c(=O)cc1C2 [Compound 254, (6S,9R)-N-(5-(Benzo[c][1,2,5]oxadiazol-5-yl)-2-fluoro-4-(trifluoromethyl)phenyl)-3-oxo-3,5,6,7,8,9-hexahydro-2H-6,9-epiminocyclohepta[c]pyridazine-10-carboxamide] | > 6.30 | – |
| COc1ccc(-c2cc(F)c(NC(=O)N3[C@H]4CC[C@@H]3c3ccnc(F)c3C4)cc2Cl)cn1 [Compound 185, (5R,8S)-N-(5-Chloro-2-fluoro-4-(6-methoxypyridin-3-yl)phenyl)-1-fluoro-6,7,8,9-tetrahydro-5H-5,8-epiminocyclohepta[c]pyridine-10-carboxamide] | > 6.30 | – |
